Data as given in paper PMC12140386, “Diallyl Trisulfide From Garlic Regulates RAB18 Phase Separation to Inhibit Lipophagy and Induce Cuproptosis in Hepatic Stellate Cells for Antifibrotic Effects” (Advanced Science, 2025).

How the values were obtained:
[1] = biological target: T1, purified RAB18 protein (GFP‐RAB18) (Homo sapiens, UniProt Q9NP72); experiment: FRAP of RAB18 droplets (also AFM); type: binding; details: 10 µM DATs; 50 µM protein; 50 mM HEPES pH 7.4, 150 mM NaCl; no added CaCl2
T1 construct: GFP-fusion RAB18, expressed in E. coli BL21 (DE3), Ni-NTA purified
T1 sequence (Q9NP72 whole entry, the tested form may be a part): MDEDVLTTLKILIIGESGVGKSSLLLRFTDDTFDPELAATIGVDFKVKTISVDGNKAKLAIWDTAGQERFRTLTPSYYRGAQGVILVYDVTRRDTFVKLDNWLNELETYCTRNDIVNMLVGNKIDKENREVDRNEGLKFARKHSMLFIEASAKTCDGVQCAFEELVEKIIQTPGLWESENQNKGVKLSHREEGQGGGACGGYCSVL

[2] = biological target: T2, RAB18 protein in LX2 cells (Homo sapiens, UniProt Q9NP72); experiment: cellular thermal shift assay; type: cell-based; details: 10 µM DATs, 24 h
T2 construct: endogenous RAB18 in human hepatic stellate cell line LX2 (CETSA)
T2 sequence (Q9NP72 1-203): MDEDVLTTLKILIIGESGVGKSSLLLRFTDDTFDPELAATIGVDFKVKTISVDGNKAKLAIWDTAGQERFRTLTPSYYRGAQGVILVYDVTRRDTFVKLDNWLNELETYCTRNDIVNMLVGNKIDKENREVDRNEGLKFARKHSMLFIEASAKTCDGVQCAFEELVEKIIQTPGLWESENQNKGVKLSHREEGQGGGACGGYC

C=CCSSSCC=C [DATs, Diallyl trisulfides]
FRAP recovery percentage [1]: ~ ≈80%
CETSA [2]: DATs exhibit a strong affinity for RAB18, effectively binding to and stabilizing the conformation of RAB18
